# Entries after “also recorded” stand apart in the source; their conditions may differ.
# Columns and labels:
# [1] = target: T1, human recombinant PARP2 (Homo sapiens, UniProt Q9UGN5); test: PARP2 activity by inclusion of α-[32P]-NAD+ in poly(ADP-ribose); format: biochemical; details: in the presence of 1 mM compound; read-out: Residual activity of PARP2
# T1 construct: made in house
# Procedure: (§1) Since it has previously been shown that nucleoside derivatives can inhibit enzymes of the PARP family, we also checked whether the studied compounds were able to inhibit the enzymes PARP1 and PARP2. […] Thus, when using our compounds, one cannot expect side effects from PARP1/2.
# (§2) Purified human recombinant PARP1/2 [65] and [^32P] NAD^+ [27] were prepared as described earlier. The activity of PARP1/2 was evaluated by the rate of incorporation of the radioactive label into the acid-insoluble reaction product—PAR as described previously.
# [2] = Cell culture cytotoxicity assay (EZ4U colorimetric test); format: cell-based; details: human, HeLa cells
# Excerpt: (§3) Tdp1 inhibitors are intended to be used in therapeutic cocktails to sensitize tumors to the action of anticancer Top1 poisons. […] To assess the toxicity of the compounds, their effect on the survival of the HeLa cell line (human cervical cancer) was studied using the colorimetric test of metabolic activity of cells EZ4U, which reflects the survival of cells in the presence of the studied compounds. The EZ4U assay is based on the ability of living cells to reduce the colorless tetrazolium salt XTT [sodium 3,3′-{1-(phenylamino)-carbonyl-3,4-tetrazolium) -bis(4-methoxy-6-nitro)-benzene sulfonic acid hydrate] to an orange water-soluble formazan product. This method was used to investigate the intrinsic cytotoxicity of promising inhibitors discovered in the course of this work, as well as the toxicity of their combination with Tpc.
# (§4) Cytotoxicity of the compounds was examined on human cell lines HeLa using an EZ4U colorimetric test (Biomedica, Vienna, Austria). The HeLa cell line was obtained from the Russian Cell Culture Collection (RCCC) Institute of Cytology RAS, St. Petersburg, Russia. The cells were grown in DMEM/F12 medium (Gibco, Thermo Fisher Scientific, Waltham, MA, USA), with 1x GlutaMAX (Gibco, Thermo Fisher Scientific, Waltham, MA, USA), 50 IU/mL penicillin, 50 μg/mL streptomycin (MP Biomedicals), and in the presence of 10% fetal bovine serum (Biolot, Saint-Petersburg, Russia) in a 5% CO2 atmosphere. Since lipophilic nucleosides are soluble in DMSO, cells were grown in the presence of 1% DMSO in the control wells. After the formation of a 30–50% monolayer, the tested compounds were added to the medium, and the cell culture was monitored for 3 days. The values were normalized to their own control in each case. At least three independent experiments were carried out. The 50% cytotoxic concentration (CC50) was defined as the compound concentration that reduced the cell viability by 50% when compared to the untreated controls. The CC50 value was determined using OriginPro 8.6.0 software (OriginLab, Northampton, MA, USA). The measurements were carried out in three independent experiments.
# [3] = system: HeLa cells; test: Effect of compounds on topotecan cytotoxicity (EZ4U test); format: cell-based, human; details: compound 10 μM in combination with Tpc
# Excerpt: as §3
# As already mentioned, we expected to increase the efficacy and/or reduce the dosage of Tpc with Tdp1 inhibitors. To do this, we studied the effect of nucleoside derivatives on Tpc cytotoxicity. […] We attribute this to the probable presence of protein targets other than Tdp1 in the cell.
# as §4
# [4] = target: T2, purified recombinant human Tdp1 (Homo sapiens, UniProt Q9NUW8); test: Real-time detection of Tdp1 activity (removal of BHQ1 from a 5′-FAM 16-nt oligonucleotide, fluorescence); format: biochemical; details: for IC50: 1.5 nM Tdp1, 50 nM oligonucleotide, 25 °C, three independent experiments
# T2 construct: made in house
# T2 sequence (Q9NUW8 whole entry): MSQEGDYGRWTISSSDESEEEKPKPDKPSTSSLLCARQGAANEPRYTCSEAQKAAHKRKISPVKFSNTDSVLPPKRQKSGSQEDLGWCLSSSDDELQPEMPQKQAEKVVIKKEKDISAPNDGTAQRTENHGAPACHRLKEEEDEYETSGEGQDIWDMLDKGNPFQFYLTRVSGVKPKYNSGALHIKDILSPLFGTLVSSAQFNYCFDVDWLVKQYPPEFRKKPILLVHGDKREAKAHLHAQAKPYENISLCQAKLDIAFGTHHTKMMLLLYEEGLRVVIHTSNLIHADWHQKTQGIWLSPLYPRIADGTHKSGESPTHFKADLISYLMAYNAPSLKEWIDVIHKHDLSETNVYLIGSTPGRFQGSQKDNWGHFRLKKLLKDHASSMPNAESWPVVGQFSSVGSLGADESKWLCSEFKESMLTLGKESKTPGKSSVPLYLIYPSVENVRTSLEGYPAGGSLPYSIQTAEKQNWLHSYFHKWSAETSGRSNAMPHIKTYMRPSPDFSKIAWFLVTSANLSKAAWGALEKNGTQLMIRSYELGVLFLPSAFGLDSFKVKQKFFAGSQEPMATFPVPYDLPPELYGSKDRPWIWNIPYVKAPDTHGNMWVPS
# Procedure: In this work, four natural nucleosides (1-4) and […] aromatic lipophilic derivatives of purine nucleosides (5a-f, 6a-d) were tested for Tdp1 activity. The used test system was based on the enzyme’s ability to remove Black Hole Quencher 1 (BHQ1) from the 3′ end of a 5′ FAM 16-nt oligonucleotide. As a result, an increase in FAM fluorescence was detected and the obtained kinetic curves were used to calculate the IC50 parameter (the concentration of the inhibitor at which the enzyme activity is reduced by half). We have found potent Tdp1 inhibitors with IC50 in the range from 0.3 to 7 μM (Table 1).
# Purified human recombinant Tdp1 was prepared as described earlier. Real-time detection of Tdp1 activity was reported in our previous work. The approach consists of a fluorescence intensity measurement of the reaction of quencher removal from the fluorophore-quencher coupled DNA oligonucleotide catalyzed by Tdp1 in the presence of the inhibitor (the control samples contained 1% DMSO). The biosensor was single-stranded oligonucleotide (5′-[FAM] AAC GTC AGGGTC TTC C [BHQ]-3′) containing fluorophore at the 5′ end (5,6-FAM) and a Black Hole Quencher 1 (BHQ) at the 3′ end, and was synthesized in the Laboratory of nucleic acid chemistry at the Institute of Chemical Biology and Fundamental Medicine SB RAS, Novosibirsk, Russia. The reactions were incubated at a constant temperature 25 °C in a POLARstar OPTIMA fluorimeter, BMG LABTECH, GmbH, to measure fluorescence every 55 s (Ex485/Em520 nm) during the linear phase (here, the data are from 0 to 8 min). […] The IC50 values were determined using a six-point concentration response curve in three independent experiments and calculated using MARS Data Analysis 2.0 (BMG LABTECH).
# [5] = target: T3, human recombinant PARP1 (Homo sapiens, UniProt P09874); test: PARP1 activity by inclusion of α-[32P]-NAD+ in poly(ADP-ribose); format: biochemical; details: in the presence of 1 mM compound; read-out: Residual activity of PARP1
# T3 construct: made in house
# T3 sequence (P09874 whole entry): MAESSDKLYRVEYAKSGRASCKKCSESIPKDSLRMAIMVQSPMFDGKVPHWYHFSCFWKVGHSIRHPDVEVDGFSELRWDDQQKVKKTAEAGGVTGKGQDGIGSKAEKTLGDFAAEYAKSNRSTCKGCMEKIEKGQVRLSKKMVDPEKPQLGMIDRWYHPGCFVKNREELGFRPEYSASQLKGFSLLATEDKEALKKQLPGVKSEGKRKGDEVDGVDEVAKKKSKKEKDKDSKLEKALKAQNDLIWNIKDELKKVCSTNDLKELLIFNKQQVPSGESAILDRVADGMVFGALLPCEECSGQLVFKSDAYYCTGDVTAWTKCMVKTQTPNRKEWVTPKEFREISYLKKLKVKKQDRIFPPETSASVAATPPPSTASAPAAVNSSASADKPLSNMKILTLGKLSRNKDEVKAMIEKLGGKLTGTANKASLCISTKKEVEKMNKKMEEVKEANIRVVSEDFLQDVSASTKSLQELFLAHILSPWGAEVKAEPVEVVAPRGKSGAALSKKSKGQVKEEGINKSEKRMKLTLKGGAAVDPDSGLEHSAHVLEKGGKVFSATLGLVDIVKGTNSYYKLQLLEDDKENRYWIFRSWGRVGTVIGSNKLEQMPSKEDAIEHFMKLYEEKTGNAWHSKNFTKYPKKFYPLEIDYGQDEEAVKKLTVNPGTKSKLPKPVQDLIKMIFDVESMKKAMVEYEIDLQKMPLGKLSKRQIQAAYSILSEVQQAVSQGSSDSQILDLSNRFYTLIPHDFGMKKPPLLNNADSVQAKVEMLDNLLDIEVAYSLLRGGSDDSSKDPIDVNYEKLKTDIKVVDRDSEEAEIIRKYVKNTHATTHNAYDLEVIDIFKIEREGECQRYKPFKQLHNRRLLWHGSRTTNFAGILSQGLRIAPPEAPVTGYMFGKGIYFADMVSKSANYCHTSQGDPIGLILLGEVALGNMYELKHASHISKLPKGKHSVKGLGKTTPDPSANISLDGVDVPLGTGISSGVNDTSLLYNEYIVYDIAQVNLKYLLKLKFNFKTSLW
# Procedure: as §1, §2
# [6] = system: HeLa cells; test: Alkaline Comet assay, accumulation of DNA damage; format: cell-based; details: for DNA in tail: Topotecan 10 μM alone (0 μM compound), 1 h
# Excerpt: We studied the effect of Tdp1 inhibitors 5f and 6d on the accumulation of DNA damage by single-cell gel electrophoresis (Comet assay). […] This method has proven to be a simple, fast, and a quite sensitive way to detect DNA damage at the level of a single cell, allowing one to analyze almost any eukaryotic cell culture. Several analysis options allow one to visualize various types of DNA damage: single- and double-stranded breaks and alkaline-labile sites. This allows this method to be widely used in fundamental studies of DNA damage and repair and in testing the genotoxicity of new chemical and pharmaceutical drugs in vitro and in vivo [51, 52]. To study potential drugs, the alkaline version of the method (pH > 13) proposed by Singh and co-authors is widely used. This method allows the detection of all types of DNA damage with high sensitivity. In cells with a large amount of DNA damage, the structural organization and integrity of DNA are disrupted, which leads to its relaxation and/or fragmentation. As a result, cellular DNA in an electric field gives the observed objects the appearance of a “comet”.
# Before studying the effect of Tdp1 inhibitors on the accumulation of DNA damage, it was necessary to find out how long the generation of DNA damage by Tpc and their repair take place in HeLa cells. To do this, cell culture was treated with Tpc at 1, 10, and 100 μM concentrations for 30 min, 1, 2, and 3 h and the level of damage to individual cells was monitored by Comet assay. It was shown that Tpc caused the greatest amount of damage after 30 minutes’ treatment. After this time, the repair systems began to correct these lesions and as a result, after 3 h most of them have been eliminated (Figure S9). […] The level of DNA damage at this point was enough to be detected, the data were reproducible, and can be evaluated by the Comet assay. The effect could be enhanced by the tested compounds without leading to cell death. It was important for us to see this enhancement in the presence of our compounds.
# HeLa cell culture was grown in a 24-well plate to a concentration of 0.05 million/mL, then treated with the tested compounds and incubated for 1 h. To obtain a cell suspension, the cells were treated with trypsin (30 µL in each well for 5 min at 37 °C), and then 200 µL of PBS + 10% FBS were added to each well.
# The resulting cell suspension (50 µL) was mixed with 250 µL of a 1% solution of molten low melting agarose (CertifiedTM LMAgarose; BIO-RAD), 250 µL of this mixture was transferred to the slides pre-coated with a 1% normal melting agarose (Agarose; Helicon), and left for several minutes at 4 °C to solidify. The resulting slides were incubated in a lysing solution (2.5 M NaCl, 100 mM EDTA, 10 mM Tris base, 1% Triton, 5% DMSO, pH 10.0) for an hour at 4 °C. Then the slides were immersed in an electrophoretic buffer (300 mM NaOH, 1 mM EDTA, pH > 13) for 45 min at 4 °C. Electrophoresis was performed at 20 V, 450 mA for 10 min while cooling on ice. After that, the slides were immersed 2 times for 5 min in 0.4 M Tris-HCl pH 7.5 solution for neutralization, washed twice with cold water, and stained with SYBR Green I (excitation maximum at 497 nm, emission maximum at 520 nm; Thermo Fisher Scientific KK).
# The images were obtained using a CELENA © S digital microscope (Logos Biosystems, Inc., Annandale, VA, USA) and analyzed with Comet analysis software (Trevigen, Inc., Gaithersburg, MD, USA. In all experiments, 2 slides were evaluated for each sample by counting at least 200 cells on the glass. As a parameter for measuring the level of DNA damage, the median value of the percentage of DNA in the tail was chosen (% Tail DNA = 100 × the intensity of DNA fluorescence in the tail of the comet/the intensity of fluorescence of the total DNA of the comet).
# T1 sequence (Q9UGN5 whole entry): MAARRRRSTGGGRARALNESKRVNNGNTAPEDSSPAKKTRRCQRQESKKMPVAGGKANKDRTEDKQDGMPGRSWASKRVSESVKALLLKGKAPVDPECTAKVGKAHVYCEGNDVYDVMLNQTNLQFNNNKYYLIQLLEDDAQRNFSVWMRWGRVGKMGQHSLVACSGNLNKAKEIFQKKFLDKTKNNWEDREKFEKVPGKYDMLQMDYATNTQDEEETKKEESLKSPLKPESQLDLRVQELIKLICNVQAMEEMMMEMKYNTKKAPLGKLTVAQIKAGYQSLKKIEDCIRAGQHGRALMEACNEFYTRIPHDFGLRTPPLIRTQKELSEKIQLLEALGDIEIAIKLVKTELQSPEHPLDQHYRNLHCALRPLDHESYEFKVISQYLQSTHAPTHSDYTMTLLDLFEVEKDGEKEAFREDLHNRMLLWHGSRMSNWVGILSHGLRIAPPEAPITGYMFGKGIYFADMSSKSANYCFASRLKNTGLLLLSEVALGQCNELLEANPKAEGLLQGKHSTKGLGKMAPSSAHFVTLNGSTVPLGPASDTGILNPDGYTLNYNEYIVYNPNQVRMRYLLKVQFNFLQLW
Compound,remaining activity at 1000 µM [1],CC50 at 3 days [2],Enhancement of Tpc Cytotoxicity by 10 μM Compounds [3],IC50 [4],remaining activity at 1000 µM [5],"Tdp1 inhibition, in words [4]",DNA in tail ([6]; series of compound 5f),DNA in tail ([6]; series of compound 6d),"Time after which most DNA lesions have been eliminated ([6]; Tpc at 1, 10 and 100 μM)","Treatment time with the greatest amount of DNA damage ([6]; Tpc at 1, 10 and 100 μM for 30 min, 1, 2 and 3 h)"
OC[C@H]1O[C@@H](n2cnc3c(NCc4c5ccccc5cc5ccccc45)ncnc32)[C@H](O)[C@@H]1O [5c],104 ± 16%,58 ± 2 µM,2.2 Times,22 ± 3 µM,92 ± 14%,–,–,–,–,–
"O=C(OC[C@H]1O[C@@H](n2cnc3c(O)ncnc32)[C@H](OC(=O)c2ccccc2)[C@@H]1OC(=O)c1ccccc1)c1ccccc1 [6a, 2′,3′,5′-Tri-O-benzoylinosine]",96 ± 30%,58 ± 5 µM,1.8 Times,7 ± 1 µM,87 ± 10%,–,–,–,–,–
OC[C@H]1O[C@@H](n2cnc3c(NC(c4ccccc4)(c4ccccc4)c4ccccc4)ncnc32)[C@H](O)[C@@H]1O [compound 5b],107 ± 9%,59.6 ± 0.6 µM,1.7 Times,> 50 µM,99 ± 8%,practically did not lead to a decrease in Tdp1 activity,–,–,–,–
OC[C@H]1O[C@@H](n2cnc3c(NCc4cc5ccc6cccc7ccc(c4)c5c67)ncnc32)[C@H](O)[C@@H]1O [5d],100 ± 15%,56 ± 10 µM,–,> 50 µM,88 ± 21%,practically did not lead to a decrease in Tdp1 activity; also recorded: did not inhibit Tdp1,–,–,–,–
"Nc1nc2c(ncn2[C@H]2C[C@H](O)[C@@H](CO)O2)c(=O)[nH]1 [compound 2, reference compound]",87 ± 18%,–,–,> 50 µM,102 ± 11%,–,–,–,–,–
"Nc1ncnc2c1ncn2[C@H]1C[C@H](O)[C@@H](CO)O1 [compound 4, reference compound]",79 ± 15%,–,–,> 50 µM,84 ± 12%,–,–,–,–,–
"O=C(OC[C@H]1O[C@@H](n2cnc3c(Cl)ncnc32)[C@H](OC(=O)c2ccccc2)[C@@H]1OC(=O)c1ccccc1)c1ccccc1 [compound 6b, 6-Chloro-2′,3′,5′-tri-O-benzoyl-β-D-ribofuranosylpurine riboside]",75 ± 16%,56 ± 26 µM,1.9 Times,2 ± 0.6 µM,86 ± 8%,–,–,–,–,–
"CC[C@@]1(O)C(=O)OCc2c1cc1n(c2=O)Cc2cc3c(CN(C)C)c(O)ccc3nc2-1 [Tpc, topotecan]",–,–,–,–,–,–,35±5%,39±1%,3 h,30 min
"Nc1nc2c(ncn2[C@@H]2O[C@H](CO)[C@@H](O)[C@H]2O)c(=O)[nH]1 [compound 1, reference compound]",91 ± 5%,–,–,> 50 µM,86 ± 5%,–,–,–,–,–
"Nc1ncnc2c1ncn2[C@@H]1O[C@H](CO)[C@@H](O)[C@H]1O [compound 3, reference compound]",95 ± 9%,–,–,> 50 µM,94 ± 9%,–,–,–,–,–
OC[C@H]1O[C@@H](n2cnc3c(NCc4ccc(-c5ccccc5)cc4)ncnc32)[C@H](O)[C@@H]1O [5a],101 ± 24%,> 100 µM,–,> 50 µM,112 ± 11%,practically did not lead to a decrease in Tdp1 activity; also recorded: did not inhibit Tdp1,–,–,–,–

# Reference: paper PMC9822400, “The Lipophilic Purine Nucleoside—Tdp1 Inhibitor—Enhances DNA Damage Induced by Topotecan In Vitro and Potentiates the Antitumor Effect of Topotecan In Vivo” (Molecules, 2022)
